The values that follow come from ChEMBL document CHEMBL1201862, “PubChem BioAssay data set” (2004).

Test systems include HCT-116; SF-295; M14; MCF7; HOP-92; DU-145; RPMI-8226; UO-31; A549; 786-0; U-251; OVCAR-5; MDA-MB-435; NCI/ADR-RES; SF-268; PC-3; MOLT-4; IGROV-1; OVCAR-8.
What all share (assay): growth of human tumour cells (NCI), 48 h

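Protocol summary: plate cells (96-well), add compound at 5 concentrations, incubate 48 h, interpolate endpoints linearly. The concentration for 50% growth inhibition is given as GI50.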 Activity calls are given as the source filed them. Rule as the data show it: active = GI50 up to about 1.1 µM and inactive = higher. A value given as a limit tells only on which side of the number the result lay.

As to `CCCCCCCCCCCCC/C=C/[C@@H](O)[C@H](COC1OC(CO)C(OC2OC(CO)C(O)C(OC3(C(=O)O)CC(O)C(NC(C)=O)C(C(O)C(O)CO)O3)C2O)C(O)C1O)N=[N+]=[N-]` (some centres not stated), the GI50 in the assay with HCT-116 is 70.1 µM (inactive); in the assay with SF-295, 26.4 µM (inactive); in the assay with M14 it was 18.7 µM (inactive); in the assay on MCF7 it was > 100 µM (inactive); in the assay with HOP-92, > 100 µM (inactive); in the assay on DU-145, > 100 µM (inactive). Further, the GI50 is 95.3 µM (inactive) with RPMI-8226; 23 µM (inactive) in the assay with UO-31; > 100 µM (inactive) with A549; > 100 µM (inactive) in the assay with 786-0; 19.9 µM (inactive) with U-251; 56 µM (inactive) in the assay with OVCAR-5. Besides, the GI50 is > 100 µM (inactive) with MDA-MB-435; 21.8 µM (inactive) in the assay with NCI/ADR-RES; 22.2 µM (inactive) in the assay on SF-268; 24.2 µM (inactive) with PC-3; 21.7 µM (inactive) with MOLT-4; 32.9 µM (inactive) in the assay with IGROV-1. For the same molecule, the GI50 with OVCAR-8 was 21.8 µM (inactive).
Turning to `COc1ccc2c(c1)C(=O)C(=O)c1cc(O)c(OC)c(OC)c1-2`, the GI50 in the assay with HCT-116 was 0.813 µM (active); with SF-295, 0.805 µM (active); in the assay on M14 it was 0.933 µM (active); in the assay on MCF7 it was 0.902 µM (active); with HOP-92, 0.875 µM (active); with DU-145, 0.918 µM (active). Further, the GI50 is 1.09 µM (active) in the assay on RPMI-8226; 0.925 µM (active) in the assay on UO-31; 2.73 µM (inactive) in the assay on A549; 0.836 µM (active) with 786-0; 0.863 µM (active) in the assay with U-251; 1.12 µM (inactive) in the assay with OVCAR-5. For the same molecule, the GI50 in the assay with MDA-MB-435 was 0.115 µM (active); with NCI/ADR-RES, 1.03 µM (active); in the assay on SF-268, 1 µM (active); in the assay with PC-3, 1.07 µM (active); in the assay on MOLT-4, 0.114 µM (active); in the assay with IGROV-1 it was 0.791 µM (active). In addition, the GI50 in the assay with OVCAR-8 was 0.875 µM (active).
Regarding `CCN(CCCl)c1cc(CN(C)C)cc(NC(=O)c2ccc(C(=O)Nc3cccc(CN(C)C)c3)cc2)c1`, the GI50 was 0.51 µM (active) in the assay with HCT-116; 1.36 µM (inactive) with SF-295; 4.27 µM (inactive) in the assay on M14; 0.11 µM (active) in the assay on MCF7; 0.512 µM (active) with HOP-92; 3.74 µM (inactive) in the assay with DU-145. The GI50 in the assay with RPMI-8226 was 2.16 µM (inactive); with UO-31 it was 27.7 µM (inactive); in the assay with A549, 2.2 µM (inactive); with 786-0, 0.383 µM (active); with U-251, 0.225 µM (active); in the assay with OVCAR-5 it was 10.6 µM (inactive). The GI50 in the assay on MDA-MB-435 was 0.238 µM (active); in the assay with NCI/ADR-RES, > 100 µM (inactive); in the assay with SF-268, 0.364 µM (active); in the assay on PC-3, 0.305 µM (active); with MOLT-4, 0.261 µM (active); in the assay with IGROV-1 it was 0.274 µM (active). Besides, in the assay with OVCAR-8, the GI50 is 0.889 µM (active).
As for `CCC12CC(c3ccccc3)C(C(=O)N1)C(=O)N2` (configuration not stated), the GI50 in the assay with HCT-116, in the assay on SF-295, in the assay on M14, in the assay on MCF7, in the assay on HOP-92 and in the assay on DU-145 was > 100 µM (inactive) in each case. The GI50 in the assay on RPMI-8226, in the assay on UO-31, in the assay with A549, in the assay on 786-0, in the assay with U-251 and in the assay with OVCAR-5 was > 100 µM (inactive) throughout. For the same molecule, the GI50 in the assay with MDA-MB-435, in the assay with NCI/ADR-RES, with SF-268, in the assay with PC-3, in the assay on MOLT-4 and in the assay with IGROV-1 was > 100 µM (inactive) each time. Further, the GI50 in the assay with OVCAR-8 is > 100 µM (inactive).
`O=C(O)C1CSC2(CCCN(Cc3ccccc3)C2)N1` (configuration not stated): the GI50 in the assay with HCT-116, in the assay with SF-295, in the assay on M14, in the assay with MCF7, with HOP-92 and with DU-145 was > 100 µM (inactive) each time. The GI50 with UO-31 is > 100 µM (inactive); with A549, > 100 µM (inactive); in the assay on 786-0 it was > 100 µM (inactive); with U-251, > 100 µM (inactive); with OVCAR-5, > 100 µM (inactive); in the assay on MDA-MB-435, > 76.7 µM (inactive). Moreover, the GI50 is > 100 µM (inactive) in the assay with NCI/ADR-RES; > 100 µM (inactive) in the assay on SF-268; > 100 µM (inactive) with PC-3; > 20.7 µM (inactive) with MOLT-4; > 100 µM (inactive) with IGROV-1; > 100 µM (inactive) in the assay with OVCAR-8.
`COc1cccc(C2ON=C(c3ccccc3)N2C23CC4CC(CC(C4)C2)C3)c1` (configuration not stated): the GI50 in the assay with HCT-116, in the assay on SF-295, in the assay on M14, in the assay on MCF7, in the assay on HOP-92 and in the assay on DU-145 was > 10 µM (inactive) throughout. Further, the GI50 with RPMI-8226 was 7.24 µM (inactive); in the assay on A549 it was > 10 µM (inactive); in the assay on 786-0, > 10 µM (inactive); with U-251, > 10 µM (inactive); with OVCAR-5, > 10 µM (inactive); in the assay with MDA-MB-435, > 10 µM (inactive). Moreover, the GI50 in the assay with NCI/ADR-RES is > 10 µM (inactive); in the assay with SF-268, > 10 µM (inactive); in the assay on PC-3, 9.35 µM (inactive); in the assay with MOLT-4, 5.5 µM (inactive); with IGROV-1, > 10 µM (inactive); in the assay with OVCAR-8, > 10 µM (inactive).
Regarding `CC1(C)CN=C(c2ccc3ccccc3c2O)N1`, the GI50 in the assay with HCT-116 is > 100 µM (inactive); in the assay on SF-295, 2.27 µM (inactive); in the assay on M14, > 100 µM (inactive); with MCF7, > 100 µM (inactive); in the assay with HOP-92 it was > 100 µM (inactive); in the assay on DU-145, > 100 µM (inactive). Moreover, the GI50 was > 100 µM (inactive) with RPMI-8226; > 100 µM (inactive) in the assay with UO-31; 23.6 µM (inactive) in the assay on A549; > 100 µM (inactive) in the assay with 786-0; > 100 µM (inactive) in the assay on U-251; > 100 µM (inactive) with OVCAR-5. The GI50 in the assay on MDA-MB-435, in the assay with NCI/ADR-RES, in the assay on SF-268, in the assay with PC-3, in the assay with MOLT-4 and with IGROV-1 was > 100 µM (inactive) in each case.
With `COC1=CCC2=C(CCN(C(=O)C3CCC3)C2Cc2ccc(OC)c(O)c2)C1` (configuration not stated), the GI50 was 11.9 µM (inactive) with HCT-116; 15.9 µM (inactive) with SF-295; 16.9 µM (inactive) with M14; 7.14 µM (inactive) in the assay on MCF7; 20.9 µM (inactive) in the assay with HOP-92; 20.3 µM (inactive) with DU-145. The GI50 was 29.4 µM (inactive) in the assay with RPMI-8226; 31.6 µM (inactive) in the assay with A549; 18.2 µM (inactive) in the assay with 786-0; 28.9 µM (inactive) in the assay with U-251; 29.5 µM (inactive) with OVCAR-5; 3.09 µM (inactive) in the assay with MDA-MB-435. The GI50 is 9.82 µM (inactive) with NCI/ADR-RES; 33.1 µM (inactive) in the assay on SF-268; 23.6 µM (inactive) in the assay on PC-3; 12.7 µM (inactive) in the assay with MOLT-4; 26.8 µM (inactive) with IGROV-1; 37.2 µM (inactive) in the assay with OVCAR-8.
As to `COC(=O)C1OC(SCCN)C(O)C(O)C1O` (configuration not stated), the GI50 in the assay on HCT-116, in the assay on SF-295, with M14, in the assay with MCF7, in the assay with HOP-92 and in the assay on DU-145 was > 100 µM (inactive) in each case. The GI50 in the assay with RPMI-8226, in the assay with A549, in the assay with 786-0, in the assay with U-251, in the assay on OVCAR-5 and with MDA-MB-435 was > 100 µM (inactive) each time. The GI50 with NCI/ADR-RES, in the assay with SF-268, in the assay with PC-3, in the assay on MOLT-4, with IGROV-1 and in the assay on OVCAR-8 was > 100 µM (inactive) in each case.
For the molecule `COc1ccc(/C=C/C2=NN(c3cccc(S(=O)(=O)O)c3)C3(C2)SCC(=O)N3c2nc3ccccc3s2)cc1` (configuration not stated), the GI50 in the assay with HCT-116 was > 100 µM (inactive); in the assay with M14, > 100 µM (inactive); in the assay with MCF7 it was 46.8 µM (inactive); in the assay on HOP-92, 68.1 µM (inactive); with DU-145, 66.5 µM (inactive); in the assay on RPMI-8226 it was 22.8 µM (inactive). Moreover, the GI50 is 51.1 µM (inactive) in the assay with UO-31; 90.4 µM (inactive) with A549; 76.7 µM (inactive) with 786-0; 46.2 µM (inactive) in the assay on U-251; > 100 µM (inactive) in the assay with OVCAR-5; 62.4 µM (inactive) in the assay with MDA-MB-435. Moreover, the GI50 in the assay with NCI/ADR-RES was 59 µM (inactive); with SF-268 it was 98.6 µM (inactive); in the assay with PC-3, 68.7 µM (inactive); with MOLT-4, 17.5 µM (inactive); with IGROV-1, 30.8 µM (inactive); in the assay on OVCAR-8 it was 60.7 µM (inactive).
As for `NC(=S)N/N=C1\CCCCC1C(O)(C(F)(F)Cl)C(F)(F)Cl` (configuration not stated), the GI50 in the assay on HCT-116, in the assay on SF-295, in the assay with M14, in the assay with MCF7, in the assay on HOP-92 and with DU-145 was > 10 µM (inactive) in each case. In addition, the GI50 in the assay with RPMI-8226, in the assay on A549, with 786-0, in the assay with U-251, in the assay on OVCAR-5 and in the assay with MDA-MB-435 was > 10 µM (inactive) each time. The GI50 in the assay on NCI/ADR-RES, in the assay on SF-268, with PC-3, with MOLT-4, in the assay on IGROV-1 and with OVCAR-8 was > 10 µM (inactive) throughout.
